Experimental data: patent US10479789B2, “Pyrido[1,2-A]pyrimidone analog, crystal form thereof, intermediate thereof and preparation method therefor” (Chia Tai Tianqing Pharmaceutical Group Co., Ltd., priority 2015, dated 2019)

Legend:
[1] = molecular target: PI3Kδ (Homo sapiens, UniProt O00329); experiment: ADP-Glo Assay II, PI3Kδ; format: biochemical; conditions: read-out: IC50 for inhibition of PI3Kδ activity
Protocol: 1) The compound was diluted using Echo from Labcyte company, 50 nL of the compound was transferred into an assay plate, and centrifuged at a speed of 1000 rpm for 10 sec.
2) A kinase/lipid substrate mixed solution and a kinase reaction buffer/lipid substrate mixed solution were prepared; the kinase/lipid substrate mixed solution was added into columns 3-24 of the assay plate, 3 μL per well; the kinase reaction buffer/lipid substrate mixed solution was added into columns 1-2 of the assay plat, 3 μL per well; and the plate was centrifuged at a speed of 1000 rpm for 10 sec.
3) An ATP solution was prepared, and added into the assay plate, 2 μL per well; the plate was centrifuged at a speed of 1000 rpm for 10 sec, shaken and mixed in 2nd gear mode on a plate shaker for 1 min, further centrifuged at a speed of 1000 rpm for 10 sec, and incubated for 120 min at 23° C. […]
5) A kinase detection reagent was prepared, added into the assay plate, 10 μL per well; the plate was centrifuged at a speed of 1000 rpm for 10 sec, shaken and mixed in 2nd gear mode on a plate shaker for 1 min, further centrifuged at a speed of 1000 rpm for 10 sec, incubated for 30 min at 23° C.; and then read on the multi-marker detector Envision.
IC50 results were analyzed by XLfit5 (Formula 205) of IDBS company.

[2] = tested on: human gastric cancer ST-02-0013; experiment: In vivo pharmacodynamics, subcutaneous xenograft tumor model of human gastric cancer ST-02-0013; parameters: species or system BALB/c nude mice
Protocol: The studies were conducted to examine if the test drugs have in vivo efficacy in the human colon cancer CO-04-0032 animal model and the gastric cancer ST-02-0013 animal model. The descriptions about the animal feeding, feed ingredients, experimental observation, experimental indexes, experimental termination, as well as data analysis in the tests were as follows:
Animal Grouping: The animals were weighed and the tumor volume was measured prior to administration. The animals were randomly grouped according to tumor volume (randomized block design).
Experimental Indexes: The experimental indexes were used to examine whether tumor growth is inhibited, delayed or cured. Tumor diameter was measured twice a week with a vernier caliper. The tumor volume was calculated by the formula: V=0.5a×b^2, wherein a and b represent the long diameter and short diameter of a tumor, respectively. Tumor growth inhibition (TGI) of a compound was evaluated with T-C (day) and T/C (%). […]
Data Analysis: One-way ANOVA was used for comparison of three or more groups. […] All data was analyzed using SPSS 17.0. p<0.05 indicated a significant difference. […]

Chain of PI3Kδ (O00329 whole entry): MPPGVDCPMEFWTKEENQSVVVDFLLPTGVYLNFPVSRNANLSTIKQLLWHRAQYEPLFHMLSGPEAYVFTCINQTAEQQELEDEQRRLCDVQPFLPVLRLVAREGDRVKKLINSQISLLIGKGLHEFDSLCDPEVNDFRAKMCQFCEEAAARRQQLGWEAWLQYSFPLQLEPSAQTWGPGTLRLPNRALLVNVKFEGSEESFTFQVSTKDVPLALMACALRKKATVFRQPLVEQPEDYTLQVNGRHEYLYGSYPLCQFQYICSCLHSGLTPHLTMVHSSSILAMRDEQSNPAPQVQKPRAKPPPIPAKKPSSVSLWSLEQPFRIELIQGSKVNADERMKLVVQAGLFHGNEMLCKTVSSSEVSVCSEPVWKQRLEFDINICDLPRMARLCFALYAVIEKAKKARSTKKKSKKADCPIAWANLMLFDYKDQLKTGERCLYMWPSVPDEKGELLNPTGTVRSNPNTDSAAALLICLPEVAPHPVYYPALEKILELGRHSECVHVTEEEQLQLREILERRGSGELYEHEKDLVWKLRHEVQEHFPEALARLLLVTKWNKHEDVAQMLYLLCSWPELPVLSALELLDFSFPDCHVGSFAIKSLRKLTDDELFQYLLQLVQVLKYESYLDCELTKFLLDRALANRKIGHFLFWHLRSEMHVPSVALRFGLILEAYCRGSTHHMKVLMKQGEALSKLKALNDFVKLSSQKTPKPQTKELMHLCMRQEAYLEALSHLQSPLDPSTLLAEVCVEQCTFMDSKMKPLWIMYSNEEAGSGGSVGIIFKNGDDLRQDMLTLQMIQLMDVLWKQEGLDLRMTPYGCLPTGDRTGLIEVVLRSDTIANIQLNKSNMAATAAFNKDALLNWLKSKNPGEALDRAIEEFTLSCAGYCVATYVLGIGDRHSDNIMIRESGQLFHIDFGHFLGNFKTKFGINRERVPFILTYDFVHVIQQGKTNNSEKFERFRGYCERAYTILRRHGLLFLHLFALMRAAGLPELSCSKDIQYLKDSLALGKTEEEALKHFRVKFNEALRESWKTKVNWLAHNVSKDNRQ
Chain of PI3Kδ (P27986 whole entry partner): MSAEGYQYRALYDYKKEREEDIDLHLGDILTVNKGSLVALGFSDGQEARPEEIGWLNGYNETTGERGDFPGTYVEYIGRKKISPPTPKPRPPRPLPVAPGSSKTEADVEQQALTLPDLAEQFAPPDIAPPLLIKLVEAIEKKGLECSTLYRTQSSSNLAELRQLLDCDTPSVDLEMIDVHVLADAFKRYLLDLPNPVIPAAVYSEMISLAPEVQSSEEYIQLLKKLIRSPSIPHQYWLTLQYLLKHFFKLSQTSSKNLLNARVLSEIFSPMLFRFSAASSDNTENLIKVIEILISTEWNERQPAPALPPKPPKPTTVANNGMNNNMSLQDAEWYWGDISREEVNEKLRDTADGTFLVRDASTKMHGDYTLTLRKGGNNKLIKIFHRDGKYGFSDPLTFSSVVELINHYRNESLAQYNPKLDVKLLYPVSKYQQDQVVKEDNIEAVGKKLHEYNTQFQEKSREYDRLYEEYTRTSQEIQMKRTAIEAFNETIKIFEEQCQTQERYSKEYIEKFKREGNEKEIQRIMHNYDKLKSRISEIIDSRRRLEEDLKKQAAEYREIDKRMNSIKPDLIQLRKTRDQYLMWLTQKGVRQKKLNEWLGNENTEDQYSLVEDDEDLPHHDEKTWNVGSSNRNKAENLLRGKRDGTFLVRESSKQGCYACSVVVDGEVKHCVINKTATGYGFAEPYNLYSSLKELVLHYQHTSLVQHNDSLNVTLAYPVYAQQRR

## COc1ncc(-c2ccc3ncc(OCCN(C)C)c(=O)n3c2)cc1NS(=O)(=O)c1ccc(F)cc1Cl [Compound 1]
[1]
  IC50: 500 ± 100 pM
[2]; from day 15 to day 30 of the administration, ST-02-0013
  increase in tumor volume: almost no increase in tumor volume
[2]; gastric cancer ST-02-0013
  anti-tumor activity compared to the positive control drug BKM120: more excellent anti-tumor activity
